Structures are written as SMILES. Like-named read-outs stand apart in the source and are kept apart here. Where only a bound is given, the exact number is not on record here.

From patent US20080146556A1, “Method of radio-sensitizing tumors using a radio-sensitizing agent” (Cephalon, Inc., priority 2006, published 2008) come the findings set out here.

For series [1], the target named is recombinant human PARP (Homo sapiens, UniProt P09874). Kind of series: Measurement of PARP enzymatic activity ([32P]NAD+ transfer to protein acceptor). The class given is biochemical. As to conditions: 100 μM NAD+. How it is done:
PARP activity was monitored by transfer of radiolabeled ADP-ribose units from [^32P]NAD^+ to a protein acceptor such as histone or PARP itself. The assay mixtures contained 100 mM Tris (pH 8.0), 2 mM DTT, 10 mM MgCl2, 20 ug/ml DNA (nicked by sonication), […] histone H1, 5 ng recombinant human PARP, and inhibitor or DMSO (<2.5% (v/v)) in a final volume of 100 uL. The reactions were initiated by the addition of 100 μM NAD^+ supplemented with 2 uCi [^32P]NAD^+/mL and maintained at room temperature for 12 minutes. Assays were terminated by the addition of […] and the radiolabeled precipitate was collected on a 96-well filter plate (Millipore, MADP NOB 50), washed with 25% TCA. The amount of acid-insoluble radioactivity, corresponding to polyADP-ribosylated protein, was quantitated in a Wallac MicroBeta scintillation counter.
Single-point inhibition data were calculated by comparing PARP, VEGFR2, or MLK3 activity in the presence of inhibitor to activity in the presence of DMSO only. Inhibition curves for compounds were generated by plotting percent inhibition versus log10 of the concentration of compound. IC50 values were calculated by nonlinear regression using the sigmoidal dose-response (variable slope) equation in GraphPad Prism as follows:
y=bottom+(top−bottom)/(1+10^(log IC^50^−x)*Hillslope)
where y is the % activity at a given concentration of compound, x is the logarithm of the concentration of compound, bottom is the % inhibition at the lowest compound concentration tested, and top is the % inhibition at the highest compound concentration examined. The values for bottom and top were fixed at 0 and 100, respectively. IC50 values are reported as the average of at least three separate determinations.
Where no IC50 value is represented, data has yet to be determined.

Series [2] in a line: Plasma levels of Example 6 at Cmax after s.c. dosing of Example 7 in the radio-sensitization studies. The class given is in vivo, nude mice. Particulars: athymic NCR NUM nude, mouse, sc.
In series [3] the test system is U87MG human glioblastoma xenografts. The class given is in vivo.
Series [4] shares this test system. Kind of series: Preliminary radio-sensitizing study of orally administered Example 7. It counts as in vivo, nude mice.
In series [5] the test system is bone marrow and intestinal mucosa. Nature of the series: Bone marrow and jejunal crypt assays for radiation-induced normal tissue toxicity. The class given is in vivo. As to conditions: Example 7 30 and 100 mg/kg dose equivalents of Example 6 sc plus 2 Gy radiation x 5 days. The procedure: To evaluate therapeutic gain, Example 7 (30 and 100 mg/kg dose equivalents of Example 6 sc) plus 2 Gy radiation×5 days was evaluated in bone marrow and jejunal crypt assays to determine if Example 7 potentiated radiation-induced normal tissue (NT) toxicity.

Series [6] deals with U87MG human glioblastoma xenografts. Nature of the series: Initial radio-sensitizing study, non-optimized dosing schedule (7.5 Gy x 3 days, s.c.). The class given is in vivo, nude mice.
Where [7] appears, read: Example 7 30 mg/kg s.c. qd x 21 d plus RT 2 Gy x 5 days.

Chain of recombinant human PARP (P09874 whole entry): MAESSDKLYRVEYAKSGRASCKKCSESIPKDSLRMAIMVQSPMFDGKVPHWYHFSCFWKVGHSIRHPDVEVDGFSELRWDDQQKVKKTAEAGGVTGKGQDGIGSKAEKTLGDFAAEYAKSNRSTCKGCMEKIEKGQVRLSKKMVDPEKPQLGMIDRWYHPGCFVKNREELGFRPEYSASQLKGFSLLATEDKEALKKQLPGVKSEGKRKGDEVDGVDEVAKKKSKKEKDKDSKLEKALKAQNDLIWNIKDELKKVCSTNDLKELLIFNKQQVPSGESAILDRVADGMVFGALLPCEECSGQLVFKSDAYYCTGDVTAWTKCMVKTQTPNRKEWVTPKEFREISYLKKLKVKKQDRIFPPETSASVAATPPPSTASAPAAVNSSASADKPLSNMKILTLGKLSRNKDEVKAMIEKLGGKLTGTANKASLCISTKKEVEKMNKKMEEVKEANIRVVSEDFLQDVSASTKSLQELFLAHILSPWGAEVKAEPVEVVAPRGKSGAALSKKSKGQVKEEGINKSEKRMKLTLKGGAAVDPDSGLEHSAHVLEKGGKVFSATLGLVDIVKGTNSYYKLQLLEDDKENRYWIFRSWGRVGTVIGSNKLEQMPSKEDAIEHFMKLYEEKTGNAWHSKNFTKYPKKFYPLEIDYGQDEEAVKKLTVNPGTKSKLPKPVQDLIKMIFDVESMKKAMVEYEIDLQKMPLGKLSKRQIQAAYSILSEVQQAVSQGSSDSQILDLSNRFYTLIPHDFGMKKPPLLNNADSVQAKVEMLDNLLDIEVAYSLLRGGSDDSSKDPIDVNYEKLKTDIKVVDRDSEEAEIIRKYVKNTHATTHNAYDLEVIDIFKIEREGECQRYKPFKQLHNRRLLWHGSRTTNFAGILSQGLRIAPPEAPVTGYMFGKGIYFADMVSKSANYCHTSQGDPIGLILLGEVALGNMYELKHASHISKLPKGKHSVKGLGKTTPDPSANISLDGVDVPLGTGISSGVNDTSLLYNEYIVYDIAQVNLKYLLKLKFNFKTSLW

By IC50 is commonly meant the midpoint of a concentration-inhibition curve. Broadly, the Cmax is the highest concentration seen after dosing. With `COc1cccc2[nH]c3c4c(c5c(c3c12)C(=O)NC5=O)CCC4` [Example 6, 7-Methoxy-1,2,3,11-tetrahydro-5,11-diaza-benzo[a]trindene-4,6-dione], in series [1], the IC50 is < 100 nM. The Cmax stood at 5.5 µM in series [2] (30 mg/kg, Example 7 30 mg/kg s.c., fractionated RT study, read-out: Plasma levels of Example 6 at Cmax associated with radio-sensitization efficacy); 21 µM in series [2] (100 mg/kg, Example 7 100 mg/kg s.c. dose, fractionated RT study, read-out: Plasma levels at Cmax); 23 µM in series [2] (100 mg/kg, at 100 mg/kg Example 7 s.c., initial study (7.5 Gy schedule), read-out: Plasma levels of Example 6 at Cmax associated with efficacy).

In general, mortality refers to the percentage killed. Higher therefore signals fewer survivors. For the compound `COc1cccc2[nH]c3c4c(c5c(c3c12)C(=O)N(CN1CCN(C)CC1)C5=O)CCC4` [Example 7, 7-Methoxy-5-(4-methyl-piperazin-1-ylmethyl)-1,2,3,11-tetrahydro-5,11-diaza-benzo[a]trindene-4,6-dione], in series [3] (Example 7 30 mg/kg s.c. qd x 21 d in combination with RT 2 Gy x 5 days), the “TGD compared to radiation alone” value is reported as 15 days. In addition, in series [3] (setting [7]), the “TGD compared to Example 7 alone” value worked out at 26 days, the “fold increase in TGD compared to Example 7 alone” value was 6 fold and the “fold increase in TGD compared to radiation alone” value was determined as 4 fold. For the same compound, the anti-tumor efficacy entry in series [3] (Example 7 100 mg/kg s.c. with fractionated radiotherapy 2 Gy x 5 days) is on record as “significant anti-tumor efficacy”. The compound further returned a mortality in series [3] (Example 7 100 mg/kg s.c. with fractionated radiotherapy, by day 11) of 80%. In series [3] (Example 7 alone, 30 mg/kg dose equivalents of Example 6 s.c. qd x 21 days), the “effect on tumor growth inhibition, Example 7 alone” value is listed as “no effect on tumor growth inhibition”. The “effect on tumor growth” value in series [4] (Example 7 200 mg/kg dose equivalents of Example 6 p.o. qd x 21 d plus RT 2 Gy x 5 d) is listed as “no effect on tumor growth as compared to RT alone”. The “effect on tumor growth” value in series [4] (Example 7 300 mg/kg dose equivalents of Example 6 p.o. qd x 21 d plus RT 2 Gy x 5 d) was “tumor growth stasis starting on day 8 and continuing throughout the study (day 31)”. Moreover, the “effect on tumor growth” value in series [4] (Example 7 alone, 200 and 300 mg/kg dose equivalents of Example 6 p.o. qd x 21 d) is recorded as “no effect on tumor growth as compared to RT alone”. For the same compound, in series [4] (oral administration), the “radio-sensitizing effect when administered orally” value is “exerts radio-sensitizing effects when administered orally”. Moreover, the “potentiation of radiation-induced normal tissue toxicity” value in series [5] is listed as “did not potentiate radiation toxicity”. For the same compound, in series [6] (Example 7 (100 mg/kg s.c. qd) with 7.5 Gy radiation for 3 days, vs vehicle), the “tumor growth delay (TGD)” value is 14.8 days. Besides, the “time for tumors to reach 2000 mm3” value in series [6] (Example 7 (100 mg/kg s.c. qd) with 7.5 Gy radiation for 3 days, radiation alone 16.1 days) stood at 24.8 days. The “effect on tumor growth as a single agent” value in series [6] (Example 7 alone, 100 mg/kg dose equivalents of Example 6, s.c., QD for 5 days) is listed as “no effect on tumor growth”. Moreover, the “time for tumors to reach a tumor volume of 2000 mm3” value in series [6] (Example 7 only, 100 mg/kg dose equivalents of Example 6, s.c., QD 5 days, vehicle 10.0 days) was determined as 9.6 days. The IC50 in series [1] was < 100 nM.

For the compound `COc1cccc2c1c1c3c(c4c(c1n2CN1CCOCC1)CCC4)C(=O)N(CN1CCOCC1)C3=O` [Example 9, 7-Methoxy-5,11-(bis-morpholin-4-ylmethyl)-1,2,3,11-tetrahydro-5,11-diaza-benzo[a]trindene-4,6-dione], in series [1], the IC50 is < 100 nM.

As to `COc1cccc2[nH]c3c4c(c5c(c3c12)C(=O)N(CN1CCOCC1)C5=O)CCC4` [Example 10, 7-Methoxy-5-(morpholin-4-ylmethyl)-1,2,3,11-tetrahydro-5,11-diaza-benzo[a]trindene-4,6-dione], the IC50 in series [1] is < 100 nM.
